For 72 compounds, inhibition and IC50 results are on record in patent US9440941B2, “Substituted chroman-6-yloxy-cycloalkanes and their use as pharmaceuticals” (SANOFI, priority 2013, dated 2016).

Where a name gives a salt, the structure may show the parent alone.

The first assay deals with T1, human NCX1 (Homo sapiens, UniProt P32418).
T1 construct: expressed in transfected cells
Put plainly: Inhibition of Ca2+ influx into cells (NCX1 reverse mode), FLIPR Fluo-4 assay. The class given is cell-based. Particulars: at 10 μM; NCX1 reverse mode; IC50 value not determined; read-out: Inhibition in % at 10 μM (NCX1rv). An outline of the steps: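 CHO cells stably expressing human NCX1, loaded with Fluo-4 AM, preincubated with compound 45 min at 16 °C in pH 7.4 buffer (3.5 mM CaCl2). Reverse mode triggered by 20 µM gramicidin (final); Fluo-4 fluorescence read at 520 nm every 2 s. IC50 from percentage inhibition of max-minus-min fluorescence.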
For orientation: inhibition means the percentage by which the read-out fell short of the control. As to `Cc1ccccc1C1CCc2cc(OC3CCC(NCCSC(C)C)CC3)ccc2O1` (stereo not drawn) [compound 194], the inhibition at 10 µM is 85%.
As to `CCC(COC)NC1CCC(Oc2ccc3c(c2)CCC(c2ccccc2C)O3)CC1` (stereo not drawn) [compound 195], the inhibition at 10 µM is 96%.
In the case of `Cc1ccccc1C1CCc2cc(OC3CCC(NCCC4CCOCC4)CC3)ccc2O1` (stereo not drawn) [compound 196], the inhibition at 10 µM worked out at 97%.
For the compound `Cc1ccccc1C1CCc2cc(OC3CCC(NC4CCOCC4)CC3)ccc2O1` (stereo not drawn) [compound 197], the inhibition at 10 µM stood at 96%.
In the case of `Cc1ccccc1C1CCc2cc(OC3CCC(NCCCC4CCOC4)CC3)ccc2O1` (stereo not drawn) [compound 198], the inhibition at 10 µM was determined as 97%.
For `Cc1ccccc1C1CCc2cc(OC3CCC(NCCCOC4CCCC4)CC3)ccc2O1` (stereo not drawn) [compound 199], the inhibition at 10 µM is 71%.
Same read-out and setting: with `COCC(C)(C)CNC1CCC(Oc2ccc3c(c2)CCC(c2ccccc2C)O3)CC1` (stereo not drawn) [compound 200] the figure was 94%; with `CCOCCCNC1CCC(Oc2ccc3c(c2)CCC(c2ccccc2C)O3)CC1` (stereo not drawn) [compound 201], 98%.

Still in this assay, the particulars now being: at 10 μM; NCX1 reverse mode; IC50 value not determined; read-out: NCX1rv inhibition in % at 10 μM.
With `Cc1ccccc1C1CCc2cc(OC3CCC(NCC4CCCO4)CC3)ccc2O1` (stereo not drawn) [compound 187], the inhibition at 10 µM came out at 99%.
The same measure, in the same setting: the result for `COCC(C)NC1CCC(Oc2ccc3c(c2)CCC(c2ccccc2C)O3)CC1` (stereo not drawn) [compound 188] reads 96%.
Same read-out and setting: the result for `COCCNC1CCC(Oc2ccc3c(c2)CCC(c2ccccc2C)O3)CC1` (stereo not drawn) [compound 189] reads 100%.
The same measure, in the same setting: the result for `Cc1ccccc1C1CCc2cc(OC3CCC(NCCCOC(C)C)CC3)ccc2O1` (stereo not drawn) [compound 190] reads 93%; that for `CCSCCNC1CCC(Oc2ccc3c(c2)CCC(c2ccccc2C)O3)CC1` (stereo not drawn) [compound 191], 95%; that for `CSCCNC1CCC(Oc2ccc3c(c2)CCC(c2ccccc2C)O3)CC1` (stereo not drawn) [compound 192], 98%.
In the case of `COCCCNC1CCC(Oc2ccc3c(c2)CCC(c2ccccc2C)O3)CC1` (stereo not drawn) [compound 193], the inhibition at 10 µM was found to be 99%.

The assay is the same for the next values; noted with them: inhibition of NCX1 in reverse mode (Ca2+ influx into cells); read-out: NCX1rv IC50.
Broadly, the IC50 is the point on the concentration scale where inhibition reaches its midpoint. `CSC(C)CCNC1CCC(Oc2ccc3c(c2)CCC(c2ccccc2F)O3)CC1` (stereo not drawn) [compound 170]: the IC50 worked out at 4.6 µM.
The same measure, in the same setting: the result for `O=C(NCCO)C1CCC(Oc2ccc3c(c2)CCC(c2ccccc2F)O3)CC1` (stereo not drawn) [compound 173] reads 0.7 µM; that for `O=C(NCc1ccno1)C1CCC(Oc2ccc3c(c2)CCC(c2ccccc2F)O3)CC1` (stereo not drawn) [compound 174], 0.6 µM.
On to `CSC(C)CCNC1CCC(Oc2ccc3c(c2)CCC(c2ccccc2C)O3)CC1` (stereo not drawn) [compound 175], for which the IC50 was found to be 3.5 µM.
Take `N[C@@H](CO)C(=O)N[C@H]1CC[C@H](Oc2ccc3c(c2)CCC(c2ccccc2)O3)CC1` (stereo partly drawn) [compound 181, hydrochloride]: the IC50 stood at 0.3 µM.
Same read-out and setting: with `CCn1nccc1CNC(=O)C1CCC(Oc2ccc3c(c2)CCC(c2ccccc2F)O3)CC1` (stereo not drawn) [compound 183] the figure was 10 µM; with `O=C(NCc1ccnc(Cl)c1)C1CCC(Oc2ccc3c(c2)CCC(c2ccccc2F)O3)CC1` (stereo not drawn) [compound 184], 1.3 µM.
Still for that read-out and setting: with `Cc1ccccc1C1CCc2cc(OC3CCC(NCCN4CCOCC4)CC3)ccc2O1` (stereo not drawn) [compound 202] the figure was 1.9 µM; with `Cc1ccccc1C1CCc2cc(OC3CCC(NC4CC4)CC3)ccc2O1` (stereo not drawn) [compound 203], 1.5 µM.
For the compound `Cc1ccccc1C1CCc2cc(OC3CCC(NC4CCCC4)CC3)ccc2O1` (stereo not drawn) [compound 204], the IC50 is 1.9 µM.
Same read-out and setting: with `CCCNC1CCC(Oc2ccc3c(c2)CCC(c2ccccc2C)O3)CC1` (stereo not drawn) [compound 205] the figure was 1.5 µM.
As to `Cc1ccccc1C1CCc2cc(OC3CCC(NC4CCS(=O)(=O)C4)CC3)ccc2O1` (stereo not drawn) [compound 206], the concentration for half-maximal inhibition (IC50) came out at 1.1 µM.
For `COC[C@H](C)NC1CCC(Oc2ccc3c(c2)CCC(c2ccccc2C)O3)CC1` (stereo partly drawn) [compound 207], the IC50 was determined as 1.5 µM.
The same measure, in the same setting: the result for `Cc1ccccc1C1CCc2cc(OC3CCC(NCC4CCOCC4)CC3)ccc2O1` (stereo not drawn) [compound 208] reads 3 µM.
The same measure, in the same setting: with `Cc1ccccc1C1CCc2cc(OC3CCC(NCCN4CCSCC4)CC3)ccc2O1` (stereo not drawn) [compound 209] the figure was 3.2 µM.
On the same count and under the same terms, with `O=S1(=O)CCC(NC2CCC(Oc3ccc4c(c3)CCC(c3ccccc3F)O4)CC2)C1` (stereo not drawn) [compound 210] the figure was 1.1 µM; with `COCC(C)(C)CNC1CCC(Oc2ccc3c(c2)CCC(c2ccccc2F)O3)CC1` (stereo not drawn) [compound 211], 2.2 µM; with `Fc1ccccc1C1CCc2cc(OC3CCC(NC4CC4)CC3)ccc2O1` (stereo not drawn) [compound 212], 1.7 µM.
Turning to `CCCNC1CCC(Oc2ccc3c(c2)CCC(c2ccccc2F)O3)CC1` (stereo not drawn) [compound 213], the half-inhibitory concentration (IC50) turned out to be 1.4 µM.
`COCCNC1CCC(Oc2ccc3c(c2)CCC(c2ccccc2F)O3)CC1` (stereo not drawn) [compound 214]: the IC50 is 1.6 µM.
As for `COCCCNC1CCC(Oc2ccc3c(c2)CCC(c2ccccc2F)O3)CC1` (stereo not drawn) [compound 215], the IC50 was 2.8 µM.
For `Fc1ccccc1C1CCc2cc(OC3CCC(NCC4CCCO4)CC3)ccc2O1` (stereo not drawn) [compound 216], the concentration for half-maximal inhibition (IC50) is 1.7 µM.
Same read-out and setting: the result for `CCSCCNC1CCC(Oc2ccc3c(c2)CCC(c2ccccc2F)O3)CC1` (stereo not drawn) [compound 217] reads 2.3 µM.
Same read-out and setting: the result for `Fc1ccccc1C1CCc2cc(OC3CCC(NC4CCCC4)CC3)ccc2O1` (stereo not drawn) [compound 218] reads 2.8 µM; that for `COCC(C)NC1CCC(Oc2ccc3c(c2)CCC(c2ccccc2F)O3)CC1` (stereo not drawn) [compound 219], 2.4 µM; that for `Fc1ccccc1C1CCc2cc(OC3CCC(NCCC4CCOCC4)CC3)ccc2O1` (stereo not drawn) [compound 220], 2.4 µM.
Still for that read-out and setting: with `COC[C@H](C)NC1CCC(Oc2ccc3c(c2)CCC(c2ccccc2F)O3)CC1` (stereo partly drawn) [compound 221] the figure was 2.3 µM; with `CCC(COC)NC1CCC(Oc2ccc3c(c2)CCC(c2ccccc2F)O3)CC1` (stereo not drawn) [compound 222], 3.1 µM.
As to `CCOCCCNC1CCC(Oc2ccc3c(c2)CCC(c2ccccc2F)O3)CC1` (stereo not drawn) [compound 223], the IC50 came to 3.1 µM.
For `Fc1ccccc1C1CCc2cc(OC3CCC(NCCN4CCOCC4)CC3)ccc2O1` (stereo not drawn) [compound 224], the IC50 is 3.5 µM.
The same measure, in the same setting: with `CC(C)OCCCNC1CCC(Oc2ccc3c(c2)CCC(c2ccccc2F)O3)CC1` (stereo not drawn) [compound 225] the figure was 3.9 µM; with `CSCCNC1CCC(Oc2ccc3c(c2)CCC(c2ccccc2F)O3)CC1` (stereo not drawn) [compound 226], 2.4 µM; with `Fc1ccccc1C1CCc2cc(OC3CCC(NCCN4CCSCC4)CC3)ccc2O1` (stereo not drawn) [compound 227], 4.3 µM.
Regarding `Fc1ccccc1C1CCc2cc(OC3CCC(NCCCC4CCOC4)CC3)ccc2O1` (stereo not drawn) [compound 228], the IC50 worked out at 2.2 µM.
The same measure, in the same setting: the result for `Fc1ccccc1C1CCc2cc(OC3CCC(NCCCOC4CCCC4)CC3)ccc2O1` (stereo not drawn) [compound 229] reads 6 µM; that for `CCCCNC1CCC(Oc2ccc3c(c2)CCC(c2ccccc2F)O3)CC1` (stereo not drawn) [compound 230], 2.9 µM; that for `Fc1ccccc1C1CCc2cc(OC3CCC(NC4CCOCC4)CC3)ccc2O1` (stereo not drawn) [compound 231], 4.1 µM.
Same read-out and setting: with `CC(C)SCCNC1CCC(Oc2ccc3c(c2)CCC(c2ccccc2F)O3)CC1` (stereo not drawn) [compound 232] the figure was 5.9 µM; with `O=C(N[C@H]1CC[C@H](Oc2ccc3c(c2)CCC(c2ccccc2F)O3)CC1)C1CCC1` (stereo partly drawn) [compound 244], 0.1 µM.
The same measure, in the same setting: with `CO[C@H](C)C(=O)N[C@H]1CC[C@H](Oc2ccc3c(c2)CCC(c2ccccc2F)O3)CC1` (stereo partly drawn) [compound 255] the figure was 0.2 µM; with `Cc1c(F)cccc1C1CCc2cc(OC3CCC(C(=O)NCCO)CC3)ccc2O1` (stereo not drawn) [compound 262], 0.2 µM; with `Cc1c(F)cccc1C1CCc2cc(OC3CCC(C(=O)NCc4ccno4)CC3)ccc2O1` (stereo not drawn) [compound 263], 0.1 µM.
As for `Cc1ccccc1C1CCc2cc(OC3CCC(C(=O)NC(CO)CO)CC3)ccc2O1` (stereo not drawn) [compound 264], the IC50 was determined as 0.2 µM.
Take `Cc1c(F)cccc1C1CCc2cc(OC3CCC(C(=O)NCC(N)=O)CC3)ccc2O1` (stereo not drawn) [compound 272]: the 50% inhibitory concentration (IC50) came to 0.4 µM.
Still for that read-out and setting: the result for `Cc1c(F)cccc1C1CCc2cc(OC3CCC(C(=O)NCC(=O)N(C)C)CC3)ccc2O1` (stereo not drawn) [compound 273] reads 0.6 µM; that for `Cc1c(F)cccc1C1CCc2cc(OC3CCC(C(=O)NCCS(=O)(=O)N(C)C)CC3)ccc2O1` (stereo not drawn) [compound 274], 0.6 µM; that for `CNS(=O)(=O)CCNC(=O)C1CCC(Oc2ccc3c(c2)CCC(c2cccc(F)c2C)O3)CC1` (stereo not drawn) [compound 275], 0.4 µM.
For the compound `Cc1c(F)cccc1C1CCc2cc(OC3CCC(C(=O)NCC(C)O)CC3)ccc2O1` (stereo not drawn) [compound 276], the half-inhibitory concentration (IC50) was found to be 0.6 µM.
On to `Cc1c(F)cccc1C1CCc2cc(OC3CCC(C(=O)NCCNS(C)(=O)=O)CC3)ccc2O1` (stereo not drawn) [compound 277], for which the IC50 was found to be 0.3 µM.
Still for that read-out and setting: the result for `CNC(=O)CNC(=O)C1CCC(Oc2ccc3c(c2)CCC(c2cccc(F)c2C)O3)CC1` (stereo not drawn) [compound 281] reads 0.5 µM.
Take `CSC(C)CCNC(=O)C1CCC(Oc2ccc3c(c2)CCC(c2cccc(F)c2C)O3)CC1` (stereo not drawn) [compound 282]: the half-maximal inhibitory concentration (IC50) turned out to be 0.4 µM.
On the same count and under the same terms, the result for `CCn1nccc1CNC(=O)C1CCC(Oc2ccc3c(c2)CCC(c2cccc(F)c2C)O3)CC1` (stereo not drawn) [compound 283] reads 0.6 µM; that for `Cc1c(F)cccc1C1CCc2cc(OC3CCC(C(=O)NC[C@@H]4CCCC[C@H]4O)CC3)ccc2O1` (stereo partly drawn) [compound 284], 0.8 µM; that for `Cc1cc2c(cc1OC1CCC(C(=O)NCCO)CC1)CCC(c1ccccc1C)O2` (stereo not drawn) [compound 288], 1.9 µM.
Still for that read-out and setting: the result for `Cc1cc2c(cc1OC1CCC(C(=O)NCc3ccno3)CC1)CCC(c1ccccc1C)O2` (stereo not drawn) [compound 289] reads 1.3 µM; that for `CCn1nccc1CNC(=O)C1CCC(Oc2cc3c(cc2C)OC(c2ccccc2C)CC3)CC1` (stereo not drawn) [compound 290], 1.5 µM; that for `O=C(NCCO)C1CCC(Oc2ccc3c(c2Cl)CCC(c2ccccc2)O3)CC1` (stereo not drawn) [compound 291], 1.1 µM.
